Measurements from patent publication US9073855B2, “BCL-2 selective apoptosis-inducing agents for the treatment of cancer and immune diseases” (AbbVie Inc., priority 2008, dated 2015).

Columns and labels:
GST-Bcl-XL = GST-Bcl-XL (Homo sapiens, UniProt Q07817); test: TR-FRET binding assay, GST-Bcl-XL with F-Bak peptide probe; conditions: TR-FRET Binding Affinity
Method in brief: (§1)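 Displacement of a fluorescein-labelled Bak peptide from the GST-tagged protein was followed by time-resolved FRET with a terbium anti-GST donor after 3 h incubation at room temperature. Inhibition constants were calculated with Wang's equation.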

GST-Bcl-2 = GST-Bcl-2 (Homo sapiens, UniProt P10415); test: TR-FRET binding assay, GST-Bcl-2 with F-Bak peptide probe; conditions: for Ki: TR-FRET Binding Affinity
Method in brief: as §1

[1] = TR-FRET, Bcl-XL Ki divided by Bcl-2 Ki
[2] = GST-Bcl-XL, F-Bak peptide probe
[3] = ratio of TR-FRET Ki values, Bcl-XL over Bcl-2

Sequence of GST-Bcl-2 (P10415 whole entry): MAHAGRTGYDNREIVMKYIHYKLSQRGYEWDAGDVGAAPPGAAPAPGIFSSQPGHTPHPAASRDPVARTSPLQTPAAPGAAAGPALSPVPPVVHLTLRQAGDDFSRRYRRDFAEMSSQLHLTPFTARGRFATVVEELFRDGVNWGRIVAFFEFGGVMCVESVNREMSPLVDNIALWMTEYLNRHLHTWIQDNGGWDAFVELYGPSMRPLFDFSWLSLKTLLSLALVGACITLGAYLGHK
Sequence of GST-Bcl-XL (Q07817 whole entry): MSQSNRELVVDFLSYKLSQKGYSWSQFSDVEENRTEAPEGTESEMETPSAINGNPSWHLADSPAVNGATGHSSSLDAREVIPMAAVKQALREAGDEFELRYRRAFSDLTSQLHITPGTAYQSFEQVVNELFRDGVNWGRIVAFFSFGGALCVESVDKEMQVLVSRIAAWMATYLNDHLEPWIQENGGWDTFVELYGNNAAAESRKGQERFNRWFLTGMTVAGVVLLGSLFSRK

Row | Compound | Ki (GST-Bcl-XL) [nM] | Ki (GST-Bcl-2) [nM] | Binding selectivity ratio (Bcl-XL Ki/Bcl-2 Ki) (GST-Bcl-2; [1]) | Ki (GST-Bcl-XL; [2]) [nM] | Ki (GST-Bcl-2; GST-Bcl-2, F-Bak peptide probe) [nM] | Binding selectivity ratio (Bcl-XL Ki/Bcl-2 Ki) (GST-Bcl-2; [3])
1 | O=C(NS(=O)(=O)c1cnc(OCC2(F)CCN(C3COC3)CC2)c(Cl)c1)c1ccc(N2CCN(CC3=C(c4ccc(Cl)cc4)CCC(F)(F)C3)CC2)cc1Oc1cccc2[nH]ncc12 [Example 522, N-[(5-chloro-6-{[4-fluoro-1-(oxetan-3-yl)piperidin-4-yl]methoxy}pyridin-3-yl)sulfonyl]-4-(4-{[2-(4-chlorophenyl)-5,5-difluorocyclohex-1-en-1-yl]methyl}piperazin-1-yl)-2-(1H-indazol-4-yloxy)benzamide] | 2.08 | < 0.01 | >207.9 |  |  | 
2 | CC1(C)CCC(CN2CCN(c3ccc(C(=O)NS(=O)(=O)c4ccc(NCC5CCC(F)(F)CC5)c([N+](=O)[O-])c4)c(Oc4cccc5[nH]cnc45)c3)CC2)=C(c2ccc(Cl)cc2)C1 [Example 456, 2-(1H-benzimidazol-4-yloxy)-4-(4-{[2-(4-chlorophenyl)-4,4-dimethylcyclohex-1-en-1-yl]methyl}piperazin-1-yl)-N-[(4-{[(4,4-difluorocyclohexyl)methyl]amino}-3-nitrophenyl)sulfonyl]benzamide] | 0.54 | < 0.01 | 54.0 |  |  | 
3 | CC1(C)CCC(CN2CCN(c3ccc(C(=O)NS(=O)(=O)c4cnc(OCC5(F)CCOCC5)c(Cl)c4)c(Oc4cccc5[nH]cnc45)c3)CC2)=C(c2ccc(Cl)cc2)C1 [Example 443, 2-(1H-benzimidazol-4-yloxy)-N-({5-chloro-6-[(4-fluorotetrahydro-2H-pyran-4-yl)methoxy]pyridin-3-yl}sulfonyl)-4-(4-{[2-(4-chlorophenyl)-4,4-dimethylcyclohex-1-en-1-yl]methyl}piperazin-1-yl)benzamide] | 19.4 | < 0.01 |  |  |  | 
4 | CC1(C)CCC(CN2CCN(c3ccc(C(=O)NS(=O)(=O)c4ccc(OCC5(F)CCOCC5)c(C#N)c4)c(Oc4cccc5[nH]ncc45)c3)CC2)=C(c2ccc(Cl)cc2)C1 [Example 501, 4-(4-{[2-(4-chlorophenyl)-4,4-dimethylcyclohex-1-en-1-yl]methyl}piperazin-1-yl)-N-({3-cyano-4-[(4-fluorotetrahydro-2H-pyran-4-yl)methoxy]phenyl}sulfonyl)-2-(1H-indazol-4-yloxy)benzamide] | 163 | 0.027 | 6025.7 |  |  | 
5 | O=C(NS(=O)(=O)c1ccc(NCCCN2CCOCC2)cc1)c1ccc(N2CCN(Cc3ccccc3-c3ccc(Cl)cc3)CC2)cc1Oc1ccccc1 [Example 78, 4-{4-[(4′-chloro-1,1′-biphenyl-2-yl)methyl]piperazin-1-yl}-N-({4-[(3-morpholin-4-ylpropyl)amino]phenyl}sulfonyl)-2-phenoxybenzamide] |  |  |  | > 660 | 113 | 
6 | CC1(C)CCC(CN2CCN(c3ccc(C(=O)NS(=O)(=O)c4ccc(OCC5CCOCC5)c(Cl)c4)c(Oc4cccc5[nH]cnc45)c3)CC2)=C(c2ccc(Cl)cc2)C1 [Example 516, 2-(1H-benzimidazol-4-yloxy)-4-(4-{[2-(4-chlorophenyl)-4,4-dimethylcyclohex-1-en-1-yl]methyl}piperazin-1-yl)-N-{[3-chloro-4-(tetrahydro-2H-pyran-4-ylmethoxy)phenyl]sulfonyl}benzamide] | 4.82 | < 0.01 | >482.3 |  |  | 
7 | CC1(C)CCC(CN2CCN(c3ccc(C(=O)NS(=O)(=O)c4cnc(OCC5(F)CCOCC5)c(C#N)c4)c(Oc4cccc5[nH]ccc45)c3)CC2)=C(c2ccc(Cl)cc2)C1 [Example 393, 4-(4-{[2-(4-chlorophenyl)-4,4-dimethylcyclohex-1-en-1-yl]methyl}piperazin-1-yl)-N-({5-cyano-6-[(4-fluorotetrahydro-2H-pyran-4-yl)methoxy]pyridin-3-yl}sulfonyl)-2-(1H-indol-4-yloxy)benzamide] |  |  |  | 92.1 | 0.083 | 1109.6
8 | O=C(NS(=O)(=O)c1ccc(NCC2CCOCC2)c([N+](=O)[O-])c1)c1ccc(N2CCN(Cc3ccccc3-c3ccc(Cl)cc3)CC2)cc1Oc1cccnc1 [Example 79, 4-{4-[(4′-chloro-1,1′-biphenyl-2-yl)methyl]piperazin-1-yl}-N-({3-nitro-4-[(tetrahydro-2H-pyran-4-ylmethyl)amino]phenyl}sulfonyl)-2-(pyridin-3-yloxy)benzamide] |  |  |  | 97.2 | 2.05 | 
9 | O=C(NS(=O)(=O)c1ccc(NCC2CCOCC2)c(S(=O)(=O)C(F)(F)F)c1)c1ccc(N2CCN(Cc3ccccc3-c3ccc(Cl)cc3)CC2)cc1Oc1ccc2ccccc2c1 [Example 37, 4-{4-[(4′-chloro-1,1′-biphenyl-2-yl)methyl]piperazin-1-yl}-2-(2-naphthyloxy)-N-({4-[(tetrahydro-2H-pyran-4-ylmethyl)amino]-3-[(trifluoromethyl)sulfonyl]phenyl}sulfonyl)benzamide] |  |  |  | 44.4 | 0.464 | 
10 | CC1(C)CCC(CN2CCN(c3ccc(C(=O)NS(=O)(=O)c4ccc(N[C@H]5CC[C@H](N6CCOCC6)CC5)c([N+](=O)[O-])c4)c(Oc4cccc5[nH]cnc45)c3)CC2)=C(c2ccc(Cl)cc2)C1 [Example 452, Trans-2-(1H-benzimidazol-4-yloxy)-4-(4-{[2-(4-chlorophenyl)-4,4-dimethylcyclohex-1-en-1-yl]methyl}piperazin-1-yl)-N-({4-[(4-morpholin-4-ylcyclohexyl)amino]-3-nitrophenyl}sulfonyl)benzamide] | 6 | < 0.01 | 600.4 |  |  | 
11 | CN(C)CC(=O)N1CCO[C@@H](COc2ncc(S(=O)(=O)NC(=O)c3ccc(N4CCN(CC5=C(c6ccc(Cl)cc6)CC(C)(C)CC5)CC4)cc3Oc3cccc4[nH]ncc34)cc2Cl)C1 [Example 426, N-[(5-chloro-6-{[(2R)-4-(N,N-dimethylglycyl)morpholin-2-yl]methoxy}pyridin-3-yl)sulfonyl]-4-(4-{[2-(4-chlorophenyl)-4,4-dimethylcyclohex-1-en-1-yl]methyl}piperazin-1-yl)-2-(1H-indazol-4-yloxy)benzamide] |  |  |  | 4.31 | 0.007 | 604.2
12 | CO[C@H]1CC[C@H](COc2ncc(S(=O)(=O)NC(=O)c3ccc(N4CCN(CC5=C(c6ccc(Cl)cc6)CC(C)(C)CC5)CC4)cc3Oc3cccc4[nH]ncc34)cc2Cl)CC1 [Example 414, Trans-N-({5-chloro-6-[(4-methoxycyclohexyl)methoxy]pyridin-3-yl}sulfonyl)-4-(4-{[2-(4-chlorophenyl)-4,4-dimethylcyclohex-1-en-1-yl]methyl}piperazin-1-yl)-2-(1H-indazol-4-yloxy)benzamide] |  |  |  | 95.6 | 0.007 | 
13 | CN1CCN(CCNc2ccc(S(=O)(=O)NC(=O)c3ccc(N4CCN(CC5=C(c6ccc(Cl)cc6)CC(C)(C)CC5)CC4)cc3Oc3cccc4[nH]ccc34)cc2[N+](=O)[O-])CC1 [Example 101, 4-(4-{[2-(4-chlorophenyl)-4,4-dimethylcyclohex-1-en-1-yl]methyl}piperazin-1-yl)-2-(1H-indol-4-yloxy)-N-[(4-{[2-(4-methylpiperazin-1-yl)ethyl]amino}-3-nitrophenyl)sulfonyl]benzamide] |  |  |  | 11.2 | 0.092 | 
14 | O=C(NS(=O)(=O)c1ccc(NCC2CCOCC2)c([N+](=O)[O-])c1)c1ccc(N2CCN(Cc3cc(OCCN4CCOCC4)ccc3-c3ccc(Cl)cc3)CC2)cc1Oc1ccccc1 [Example 115, 4-(4-{[4′-chloro-4-(2-morpholin-4-ylethoxy)-1,1′-biphenyl-2-yl]methyl}piperazin-1-yl)-N-({3-nitro-4-[(tetrahydro-2H-pyran-4-ylmethyl)amino]phenyl}sulfonyl)-2-phenoxybenzamide] |  |  |  | 27.5 | 0.176 | 
15 | CC1(C)CCC(CN2CCN(c3ccc(C(=O)NS(=O)(=O)c4ccc(NCCCN5CCOCC5)c([N+](=O)[O-])c4)c(Oc4ccc5[nH]ncc5c4)c3)CC2)=C(c2ccc(Cl)cc2)C1 [Example 20, 4-(4-{[2-(4-chlorophenyl)-4,4-dimethylcyclohex-1-en-1-yl]methyl}piperazin-1-yl)-2-(1H-indazol-5-yloxy)-N-({4-[(3-morpholin-4-ylpropyl)amino]-3-nitrophenyl}sulfonyl)benzamide] |  |  |  | 77.6 | 2.36 | 
16 | CN1CCC(CNc2ccc(S(=O)(=O)NC(=O)c3ccc(N4CCN(CC5=C(c6ccc(Cl)cc6)CC(C)(C)CC5)CC4)cc3Oc3cccc4[nH]cnc34)cc2[N+](=O)[O-])CC1 [Example 454, 2-(1H-benzimidazol-4-yloxy)-4-(4-{[2-(4-chlorophenyl)-4,4-dimethylcyclohex-1-en-1-yl]methyl}piperazin-1-yl)-N-[(4-{[(1-methylpiperidin-4-yl)methyl]amino}-3-nitrophenyl)sulfonyl]benzamide] | 18.9 | 0.026 |  |  |  | 
17 | CC1(C)CCC(CN2CCN(c3ccc(C(=O)NS(=O)(=O)c4ccc(NCC5CCOC5)c([N+](=O)[O-])c4)c(Oc4cccc5[nH]cnc45)c3)CC2)=C(c2ccc(Cl)cc2)C1 (stereo not shown) [Example 439, 2-(1H-benzimidazol-4-yloxy)-4-(4-{[2-(4-chlorophenyl)-4,4-dimethylcyclohex-1-en-1-yl]methyl}piperazin-1-yl)-N-({3-nitro-4-[(tetrahydrofuran-3-ylmethyl)amino]phenyl}sulfonyl)benzamide] | 15 | < 0.01 |  |  |  | 
18 | CC1CC(=O)NN=C1c1ccc(S(=O)(=O)NC(=O)c2ccc(N3CCN(Cc4ccccc4-c4ccc(Cl)cc4)CC3)cc2Oc2ccccc2)cc1 (stereo not shown) [Example 29, 4-{4-[(4′-chloro-1,1′-biphenyl-2-yl)methyl]piperazin-1-yl}-N-{[4-(4-methyl-6-oxo-1,4,5,6-tetrahydropyridazin-3-yl)phenyl]sulfonyl}-2-phenoxybenzamide] |  |  |  | > 660 | 11.9 | 
